IC50 data for 14 compounds are collected here from ChEMBL document CHEMBL3301562, “MMV Box screening against Plasmodium falciparum protein kinases and aminoacyl tRNA synthetases”.

What all share (assay type): functional
Test [1] has as its target T1, Mitogen-activated protein kinase (Plasmodium falciparum, UniProt Q25917).
T1 sequence (Q25917 whole entry): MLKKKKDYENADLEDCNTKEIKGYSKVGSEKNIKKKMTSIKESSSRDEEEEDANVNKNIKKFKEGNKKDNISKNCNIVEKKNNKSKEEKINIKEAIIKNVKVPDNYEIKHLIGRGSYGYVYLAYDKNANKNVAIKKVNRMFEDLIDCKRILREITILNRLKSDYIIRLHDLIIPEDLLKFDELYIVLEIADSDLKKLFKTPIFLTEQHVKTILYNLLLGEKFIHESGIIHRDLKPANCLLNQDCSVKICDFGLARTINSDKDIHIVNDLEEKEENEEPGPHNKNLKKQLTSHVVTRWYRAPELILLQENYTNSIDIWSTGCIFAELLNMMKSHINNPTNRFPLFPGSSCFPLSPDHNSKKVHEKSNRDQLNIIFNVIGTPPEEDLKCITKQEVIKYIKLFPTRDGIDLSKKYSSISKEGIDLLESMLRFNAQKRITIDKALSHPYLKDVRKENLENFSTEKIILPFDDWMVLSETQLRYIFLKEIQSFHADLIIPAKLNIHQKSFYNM
Nature of the test: Final concentrations were 1 uM ATP, 0.5 mM DTT, 1 mM MgCl2, 0.5 mg/mL BSA, and 10 ug/ml MAP2 in a buffer of 50 mM HEPES (pH 7.0). 0.5 mg/mL histone III-S served as the substrate (13); 100 uM AMP-PNP, an ATP analog, was used as a control inhibitor. Incubation time was 4 hours.

Test [2] addresses Calcium-dependent protein kinase 1 (Plasmodium falciparum, UniProt P62344). Nature of the test: MMV: CDPK1 Protein kinase inhibition assay using recombinant PfCDPK1, syntide 2 peptide substrate, ATP and KinaseGlo to measure % inhibition at 1 uM MMV box compound.
In the next test the target is T2, Proline--tRNA ligase (Plasmodium falciparum (isolate 3D7), UniProt Q8I5R7).
T2 sequence (Q8I5R7 whole entry): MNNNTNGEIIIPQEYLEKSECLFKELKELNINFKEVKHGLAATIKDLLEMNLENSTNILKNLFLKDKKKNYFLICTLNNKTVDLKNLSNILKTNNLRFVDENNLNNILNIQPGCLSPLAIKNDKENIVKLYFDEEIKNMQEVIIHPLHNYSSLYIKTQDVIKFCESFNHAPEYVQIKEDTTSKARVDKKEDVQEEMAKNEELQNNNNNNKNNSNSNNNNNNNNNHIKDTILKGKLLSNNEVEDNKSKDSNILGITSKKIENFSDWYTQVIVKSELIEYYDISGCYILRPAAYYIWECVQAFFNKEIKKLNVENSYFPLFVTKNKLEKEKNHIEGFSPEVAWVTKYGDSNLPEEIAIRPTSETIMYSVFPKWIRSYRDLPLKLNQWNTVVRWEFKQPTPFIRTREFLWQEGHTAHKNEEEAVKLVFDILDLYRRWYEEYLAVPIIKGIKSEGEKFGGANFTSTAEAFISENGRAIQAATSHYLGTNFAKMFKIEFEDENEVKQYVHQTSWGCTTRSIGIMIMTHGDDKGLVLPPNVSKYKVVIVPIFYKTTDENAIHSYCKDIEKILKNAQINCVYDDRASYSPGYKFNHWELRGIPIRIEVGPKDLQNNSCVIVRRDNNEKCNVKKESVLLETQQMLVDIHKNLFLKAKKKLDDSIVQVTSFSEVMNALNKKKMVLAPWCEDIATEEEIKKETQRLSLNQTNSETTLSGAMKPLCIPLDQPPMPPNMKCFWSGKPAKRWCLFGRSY
Nature of the test: MMV: ProRS recombinant Plasmodium falciparum Prolyl-tRNA-synthetase, assay with yeast tRNA, ATP, and proline and 3 uM MMV malaria box compound, assay read out with kinase glo as % inhibition.

Test [3] has as its target T3, Putative uncharacterized protein pk7 (Plasmodium falciparum, UniProt O96214).
T3 sequence (O96214 whole entry): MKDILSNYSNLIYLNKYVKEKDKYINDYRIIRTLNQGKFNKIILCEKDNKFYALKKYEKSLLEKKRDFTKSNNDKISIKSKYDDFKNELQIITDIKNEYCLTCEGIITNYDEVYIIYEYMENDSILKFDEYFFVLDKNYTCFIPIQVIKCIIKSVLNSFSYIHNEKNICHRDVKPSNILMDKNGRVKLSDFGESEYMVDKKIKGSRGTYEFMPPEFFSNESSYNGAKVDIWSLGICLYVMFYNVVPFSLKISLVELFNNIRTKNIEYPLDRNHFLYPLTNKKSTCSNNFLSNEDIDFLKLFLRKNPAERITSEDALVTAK
Nature of the test: Final concentrations were 1 uM ATP, 2 mM DTT, 20 mM MgCl2, 2 mM MnCl2, 0.01% BSA, and 6 ug/ml PK7, in a buffer of 20 mM Tris-HCl (pH 7.5). The enzyme itself was the only substrate present (since autophosphorylation occurs); 100 uM 1NA-PP1 was used as a control inhibitor. Incubation time was 3 hours.

In test [4] the target is T4, Cdk-related protein kinase 6 (Plasmodium falciparum, UniProt O77239).
T4 sequence (O77239 whole entry): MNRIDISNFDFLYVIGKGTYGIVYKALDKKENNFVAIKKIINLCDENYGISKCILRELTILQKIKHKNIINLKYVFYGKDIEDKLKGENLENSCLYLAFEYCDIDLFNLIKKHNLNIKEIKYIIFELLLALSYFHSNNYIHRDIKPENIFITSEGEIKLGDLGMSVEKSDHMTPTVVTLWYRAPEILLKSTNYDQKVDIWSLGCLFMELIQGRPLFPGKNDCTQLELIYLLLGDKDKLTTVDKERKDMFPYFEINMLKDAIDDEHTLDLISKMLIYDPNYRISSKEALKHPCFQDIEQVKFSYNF
Nature of the test: Final concentrations were 1.5 uM ATP, 5 mM MnCl2, and 15 ug/ml PK6 in a buffer of 100 mM Tris-HCl (pH 7.5). 50 ug/mL MBP was provided as the substrate; 10 uM staurosporine was used as a control inhibitor. Incubation time was 3 hours and 40 minutes.The catalytic activity of each kinase was considered proportional to ATP consumed, as determined from measurements of residual [ATP] with the luciferase-based reagent Kinase-Glo (Promega) following incubation. Luminescence (proportional to residual [ATP]) was measured on the plate readers FLx800 (BioTek Instruments, Winooski, VT, USA) and MicroBeta2.

For a further test, the target named is Lysine--tRNA ligase (Plasmodium falciparum (isolate 3D7), UniProt Q8IDJ8). Nature of the test: MMV: KRS recombinant Plasmodium falciparum Lysyl-tRNA-synthetase, assay with yeast tRNA, ATP, and lysine and 3 uM MMV malaria box compound, assay read out with kinase glo as % inhibition.
Lysine--tRNA ligase, sequence (Q8IDJ8 whole entry): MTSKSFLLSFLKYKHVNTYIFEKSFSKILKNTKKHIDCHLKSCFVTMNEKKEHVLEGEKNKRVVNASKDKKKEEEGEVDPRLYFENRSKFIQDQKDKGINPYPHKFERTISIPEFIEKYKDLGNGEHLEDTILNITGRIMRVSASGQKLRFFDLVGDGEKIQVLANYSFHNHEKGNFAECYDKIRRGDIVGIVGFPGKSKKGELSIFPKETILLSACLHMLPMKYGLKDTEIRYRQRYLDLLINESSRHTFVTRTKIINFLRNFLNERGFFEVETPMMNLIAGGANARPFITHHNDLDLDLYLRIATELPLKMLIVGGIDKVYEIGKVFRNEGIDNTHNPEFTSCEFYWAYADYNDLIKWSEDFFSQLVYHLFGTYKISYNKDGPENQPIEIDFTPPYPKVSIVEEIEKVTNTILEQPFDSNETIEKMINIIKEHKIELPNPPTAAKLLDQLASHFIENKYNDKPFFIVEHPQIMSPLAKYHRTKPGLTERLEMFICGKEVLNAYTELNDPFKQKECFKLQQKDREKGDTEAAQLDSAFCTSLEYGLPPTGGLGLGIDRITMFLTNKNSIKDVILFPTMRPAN
For test [5], the target named is T5, Calcium-dependent protein kinase 4 (Plasmodium falciparum (isolate 3D7), UniProt Q8IBS5).
T5 sequence (Q8IBS5 whole entry): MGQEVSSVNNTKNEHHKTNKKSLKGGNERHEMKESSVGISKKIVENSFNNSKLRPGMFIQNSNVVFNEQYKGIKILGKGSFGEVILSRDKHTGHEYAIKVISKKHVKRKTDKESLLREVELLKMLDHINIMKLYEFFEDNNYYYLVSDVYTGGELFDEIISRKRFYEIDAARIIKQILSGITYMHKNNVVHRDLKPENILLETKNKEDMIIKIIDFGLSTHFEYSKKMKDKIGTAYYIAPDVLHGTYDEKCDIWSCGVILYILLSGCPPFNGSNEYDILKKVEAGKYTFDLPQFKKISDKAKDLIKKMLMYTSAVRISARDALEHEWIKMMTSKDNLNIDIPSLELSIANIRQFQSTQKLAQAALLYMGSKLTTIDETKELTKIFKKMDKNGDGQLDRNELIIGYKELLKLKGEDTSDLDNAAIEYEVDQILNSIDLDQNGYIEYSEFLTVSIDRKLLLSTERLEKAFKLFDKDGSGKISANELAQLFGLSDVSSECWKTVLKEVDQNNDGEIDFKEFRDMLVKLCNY
Nature of the test: MMV: CDPK4 Protein kinase inhibition assay using recombinant PfCDPK4, syntide2 peptide substrate, ATP and KinaseGlo to measure % inhibition at 1 uM MMV box compound.

A value given as a limit tells only on which side of the number the result lay.

Calcium-dependent protein kinase 1, sequence (P62344 whole entry): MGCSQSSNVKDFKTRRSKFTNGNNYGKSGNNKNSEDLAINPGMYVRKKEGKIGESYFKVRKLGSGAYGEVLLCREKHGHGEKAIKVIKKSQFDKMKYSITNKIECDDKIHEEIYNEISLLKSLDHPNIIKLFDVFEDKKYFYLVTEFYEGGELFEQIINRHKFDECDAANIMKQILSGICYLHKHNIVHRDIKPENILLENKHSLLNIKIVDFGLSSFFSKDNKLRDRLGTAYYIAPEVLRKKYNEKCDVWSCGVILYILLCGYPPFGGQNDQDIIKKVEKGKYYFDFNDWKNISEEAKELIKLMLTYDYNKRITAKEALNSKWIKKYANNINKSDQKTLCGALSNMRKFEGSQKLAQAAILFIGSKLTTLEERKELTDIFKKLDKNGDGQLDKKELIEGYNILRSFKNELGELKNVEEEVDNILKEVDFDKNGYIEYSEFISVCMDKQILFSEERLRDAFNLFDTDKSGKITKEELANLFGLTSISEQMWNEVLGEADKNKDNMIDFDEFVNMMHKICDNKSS

As to `FC(F)(F)c1cccc(Nc2nc3ccccc3nc2Nc2cccc(C(F)(F)F)c2)c1`, the IC50 is greater than 1000 nM in test [1]; greater than 1000 nM in test [2]; greater than 2500 nM at Proline--tRNA ligase; greater than 1000 nM in test [3]; greater than 1000 nM in test [4]; greater than 2500 nM on Lysine--tRNA ligase. The IC50 in test [5] was greater than 1000 nM.
On to `Cc1ccnc(NC(c2cccc(OCc3ccccc3)c2)c2ccc3cccnc3c2O)c1` (stereo not drawn), for which the IC50 in test [1] was greater than 1000 nM; in test [2], greater than 1000 nM; at Proline--tRNA ligase it was greater than 2500 nM; in test [3], greater than 1000 nM; in test [4], greater than 1000 nM; at Lysine--tRNA ligase it was greater than 2500 nM. Besides, the IC50 in test [5] is greater than 1000 nM.
On to `CC1CCN(Cc2c(O)ccc3cc(-c4nc5ccccc5s4)c(=O)oc23)CC1`, for which the IC50 in test [1] was greater than 1000 nM; in test [2], greater than 1000 nM; at Proline--tRNA ligase, greater than 2500 nM; in test [3], greater than 1000 nM; in test [4] it was greater than 1000 nM; on Lysine--tRNA ligase, greater than 2500 nM. Besides, the IC50 in test [5] was greater than 1000 nM.
On to `CC(C)CCNCC(O)Cn1c2ccccc2c2ccccc21` (stereo not drawn), for which the IC50 in test [1] is greater than 1000 nM; in test [2], greater than 1000 nM; at Proline--tRNA ligase, greater than 2500 nM; in test [3], greater than 1000 nM; in test [4] it was greater than 1000 nM; on Lysine--tRNA ligase, greater than 2500 nM. Moreover, the IC50 in test [5] is greater than 1000 nM.
For the compound `O=C(Nc1ccc(C23CC4CC(CC(c5ccccc5)(C4)C2)C3)cc1)c1cccs1`, the IC50 in test [1] is greater than 1000 nM; in test [2] it was greater than 1000 nM; at Proline--tRNA ligase, greater than 2500 nM; in test [3], greater than 1000 nM; in test [4] it was greater than 1000 nM; at Lysine--tRNA ligase it was greater than 2500 nM. In addition, in test [5], the half-inhibitory concentration (IC50) was greater than 1000 nM.
For `Cc1ccc(C2CC(C(F)(F)F)n3nc(C(=O)N4CCN(C(c5ccccc5)c5ccccc5)CC4)cc3N2)cc1` (stereo not drawn), the IC50 in test [1] is greater than 1000 nM; in test [2], greater than 1000 nM; at Proline--tRNA ligase, greater than 2500 nM; in test [3], greater than 1000 nM; in test [4], greater than 1000 nM; at Lysine--tRNA ligase it was greater than 2500 nM. Further, the IC50 in test [5] is greater than 1000 nM.
Consider `Cc1ccc2nc(C)cc(Nc3cccc(C(F)(F)F)c3)c2c1`, for which the IC50 is greater than 1000 nM in test [1]; greater than 1000 nM in test [2]; greater than 2500 nM at Proline--tRNA ligase; greater than 1000 nM in test [3]; greater than 1000 nM in test [4]; greater than 2500 nM at Lysine--tRNA ligase. Also, the IC50 in test [5] was greater than 1000 nM.
For the compound `COc1ccc(-c2cc(=O)oc3c4c(ccc23)OCN(Cc2ccc(F)cc2)C4)cc1`, the IC50 in test [1] is greater than 1000 nM; in test [2], greater than 1000 nM; on Proline--tRNA ligase, greater than 2500 nM; in test [3] it was greater than 1000 nM; in test [4], greater than 1000 nM; on Lysine--tRNA ligase it was greater than 2500 nM. In test [5], the IC50 is greater than 1000 nM.
For the compound `CCCCC(O)(c1ccc(Cl)cc1)C(CN1CCOCC1)c1ccc(Cl)cc1` (stereo not drawn), the IC50 in test [1] is greater than 1000 nM; in test [2], greater than 1000 nM; on Proline--tRNA ligase, greater than 2500 nM; in test [3], greater than 1000 nM; in test [4], greater than 1000 nM; on Lysine--tRNA ligase, greater than 2500 nM. The IC50 in test [5] was greater than 1000 nM.
As for `Cc1cc(=O)oc2c1ccc1oc(C(=O)c3ccccc3)c(C)c12`, the IC50 in test [1] was greater than 1000 nM; in test [2] it was greater than 1000 nM; on Proline--tRNA ligase, greater than 2500 nM; in test [3], greater than 1000 nM; in test [4], greater than 1000 nM; at Lysine--tRNA ligase, greater than 2500 nM. Besides, the IC50 in test [5] was greater than 1000 nM.
As to `COc1ccc2c(c1OC)C(=O)N1c3ccccc3N=C(c3ccc(C)cc3)CC21` (stereo not drawn), the IC50 in test [1] was greater than 1000 nM; in test [2], greater than 1000 nM; at Proline--tRNA ligase, greater than 2500 nM; in test [3], greater than 1000 nM; in test [4], greater than 1000 nM; at Lysine--tRNA ligase, greater than 2500 nM. In test [5], the IC50 was greater than 1000 nM.
For the compound `CCCCCCc1cc(O)c2c3c(c(=O)oc2c1)CCC(C)C3` (stereo not drawn), the IC50 in test [1] is greater than 1000 nM; in test [2], greater than 1000 nM; at Proline--tRNA ligase it was greater than 2500 nM; in test [3], greater than 1000 nM; in test [4], greater than 1000 nM; on Lysine--tRNA ligase it was greater than 2500 nM. Besides, in test [5], the IC50 was greater than 1000 nM.
As for `COc1ccc(CCNC(=O)c2cc(S(=O)(=O)N3CC(C)CC(C)C3)ccc2Sc2ccc(F)cc2)cc1OC` (stereo not drawn), the IC50 in test [1] was greater than 1000 nM; in test [2] it was greater than 1000 nM; at Proline--tRNA ligase, greater than 2500 nM; in test [3], greater than 1000 nM; in test [4], greater than 1000 nM; at Lysine--tRNA ligase it was greater than 2500 nM. For the same compound, the IC50 in test [5] was greater than 1000 nM.
As to `CC1=C(CC(=O)c2cccc([N+](=O)[O-])c2)C(=O)c2ccccc2C1=O`, the IC50 in test [1] is greater than 1000 nM; in test [2] it was greater than 1000 nM; on Proline--tRNA ligase, greater than 2500 nM; in test [3] it was greater than 1000 nM; in test [4], greater than 1000 nM; on Lysine--tRNA ligase, greater than 2500 nM. Moreover, the IC50 in test [5] was greater than 1000 nM.
